Results published in patent US20260250290A1 (BRISTOL-MYERS SQUIBB COMPANY, priority 2023, published 2026).
pIC50: −log10 of the molar value. Where a name gives a salt, the structure may show the parent alone.

The compounds below were run against T1, SGK1 (Homo sapiens, UniProt O00141) (assay: SGK1 inhibition Assay B (Echo mass spectrometry of phosphorylated peptide product)). Conditions: 60 min at room temperature.
T1 sequence (O00141 1-431): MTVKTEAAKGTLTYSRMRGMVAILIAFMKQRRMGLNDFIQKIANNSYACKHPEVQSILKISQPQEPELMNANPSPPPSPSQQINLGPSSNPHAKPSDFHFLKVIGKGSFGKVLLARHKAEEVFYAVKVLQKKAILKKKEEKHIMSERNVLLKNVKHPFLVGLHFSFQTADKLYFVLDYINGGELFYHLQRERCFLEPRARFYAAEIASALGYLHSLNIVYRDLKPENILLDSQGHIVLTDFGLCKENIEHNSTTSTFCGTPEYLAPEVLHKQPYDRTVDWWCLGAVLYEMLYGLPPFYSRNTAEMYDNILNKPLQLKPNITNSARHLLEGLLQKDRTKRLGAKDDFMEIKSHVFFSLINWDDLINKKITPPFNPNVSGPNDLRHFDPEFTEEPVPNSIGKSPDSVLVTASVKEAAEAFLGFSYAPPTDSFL
Assay type: biochemical
With Cc1cc(O[C@@H]2C[C@H]3CC[C@@H](C2)N3C)c(C(=O)N[C@@H]2CCCN(c3cc(-c4cnn(C(F)F)c4)n4ncnc(N)c34)C2)s1 [Example 848, N-((R)-1-(4-amino-7-(1-(difluoromethyl)-1H-pyrazol-4-yl)pyrrolo[2,1-f][1,2,4]triazin-5-yl)piperidin-3-yl)-5-methyl-3-(((1R,3s,5S)-8-methyl-8-azabicyclo[3.2.1]octan-3-yl)oxy)thiophene-2-carboxamide, TFA salt] the pIC50 was 8.22. With COCCn1nc(-c2cc(N3CCC[C@@H](NC(=O)c4sc(Cl)cc4O[C@@H]4C[C@H]5CCC[C@@H](C4)N5C)C3)c3c(N)ncnn23)ccc1=O [Example 971, N—((R)-1-(4-Amino-7-(1-(2-methoxyethyl)-6-oxo-1,6-dihydropyridazin-3-yl)pyrrolo[2,1-f][1,2,4]triazin-5-yl)piperidin-3-yl)-5-chloro-3-(((1R,3s,5S)-9-methyl-9-azabicyclo[3.3.1]nonan-3-yl)oxy)thiophene-2-carboxamide] the pIC50 was 9.00. In the case of Nc1ncnn2c(-c3ccc(-n4cnnn4)c(F)c3)cc(N3CCC[C@@H](NC(=O)c4sc(Cl)cc4OC4CCC(O)CC4)C3)c12 (single isomer, unassigned; isomer 2) [Example 935], the pIC50 was 9.70. CN1CCN(c2cccc(C(=O)N[C@@H]3CCCN(c4cc(-c5ccc(F)c(F)c5)n5ncnc(N)c45)C3)n2)CC1 [Example 811, (R)-N-(1-(4-amino-7-(3,4-difluorophenyl)pyrrolo[2,1-f][1,2,4]triazin-5-yl)piperidin-3-yl)-6-(4-methylpiperazin-1-yl)picolinamide] gave a pIC50 of 7.35. With CC(C)N1CC2(CN(c3cccc(C(=O)N[C@@H]4CCCN(c5cc(-c6cc(F)c(-n7cnnn7)cc6F)n6ncnc(N)c56)C4)n3)C2)C1 [Example 825, (R)-N-(1-(4-amino-7-(2,5-difluoro-4-(1H-tetrazol-1-yl)phenyl)pyrrolo[2,1-f][1,2,4]triazin-5-yl)piperidin-3-yl)-6-(6-isopropyl-2,6-diazaspiro[3.3]heptan-2-yl)picolinamide] the pIC50 was 8.15. For CN1[C@@H]2CC[C@H]1C[C@H](Oc1cc(Cl)sc1C(=O)N[C@@H]1CCCN(c3cc(C4=CC(=O)OC4)n4ncnc(N)c34)C1)C2 [Example 927, N—((R)-1-(4-amino-7-(5-oxo-2,5-dihydrofuran-3-yl)pyrrolo[2,1-f][1,2,4]triazin-5-yl)piperidin-3-yl)-5-chloro-3-(((1R,3s,5S)-8-methyl-8-azabicyclo[3.2.1]octan-3-yl)oxy)thiophene-2-carboxamide, TFA salt], the pIC50 was 10.00. In the case of CN1[C@@H]2CC[C@H]1C[C@H](Oc1cc(Cl)sc1C(=O)N[C@@H]1CCCN(c3cc(-c4ccc5c(c4)COC5=O)n4ncnc(N)c34)C1)C2 [Example 924, N—((R)-1-(4-amino-7-(1-oxo-1,3-dihydroisobenzofuran-5-yl)pyrrolo[2,1-f][1,2,4]triazin-5-yl)piperidin-3-yl)-5-chloro-3-(((1R,3s,5S)-8-methyl-8-azabicyclo[3.2.1]octan-3-yl)oxy)thiophene-2-carboxamide], the pIC50 was 9.05. With CCC1=C(c2cc(N3CCC[C@@H](NC(=O)c4sc(C)nc4O[C@H]4CC[C@@H](NC(C)CO)CC4)C3)c3c(N)ncnn23)COC1=O (single isomer, unassigned) [Example 1020] the pIC50 was 8.96. Compound CC(=O)N1CC=C(c2cc(N3CCC[C@@H](NC(=O)c4nc(OC5CCNCC5)c(C)s4)C3)c3c(N)ncnn23)C1 [Example 957, (R)—N-(1-(7-(1-acetyl-2,5-dihydro-1H-pyrrol-3-yl)-4-aminopyrrolo[2,1-f][1,2,4]triazin-5-yl)piperidin-3-yl)-5-methyl-4-(piperidin-4-yloxy)thiazole-2-carboxamide] has a pIC50 of 9.22. For “N—((R)-1-(4-amino-7-(2-(tert-butyl)-1,1-dioxido-2,3-dihydrobenzo[d]isothiazol-5-yl)pyrrolo[2,1-f][1,2,4]triazin-5-yl)piperidin-3-yl)-5-chloro-3-(((1R,3s,5S)-8-methyl-8-azabicyclo [3.2.1]octan-3-yl)oxy)thiophene-2-carboxamide [Example 967]”, the pIC50 was 9.05. For CC(C)N1CC2(CN(c3cccc(C(=O)N[C@@H]4CCCN(c5cc(-c6ccc(-n7cnnn7)c(CO)c6)n6ncnc(N)c56)C4)n3)C2)C1 [Example 824, (R)-N-(1-(4-amino-7-(3-(hydroxymethyl)-4-(1H-tetrazol-1-yl)phenyl)pyrrolo[2,1-f][1,2,4]triazin-5-yl)piperidin-3-yl)-6-(6-isopropyl-2,6-diazaspiro[3.3]beptan-2-yl)picolinamide], the pIC50 was 8.00. With Cc1nc(O[C@H]2CC[C@@H](NC3CCOCC3)CC2)c(C(=O)N[C@@H]2CCCN(c3cc(C4=CC(=O)OC4)n4ncnc(N)c34)C2)s1 [Example 1002, N—((R)-1-(4-amino-7-(5-oxo-2,5-dihydrofuran-3-yl)pyrrolo[2,1-f][1,2,4]triazin-5-yl)piperidin-3-yl)-2-methyl-4-(((1S,4S)-4-((tetrahydro-2H-pyran-4-yl)amino)cyclohexyl)oxy)thiazole-5-carboxamide] the pIC50 was 9.52. With Cc1nc(OC2CCC(NC3CC3)CC2)c(C(=O)N[C@@H]2CCCN(c3cc(-c4ccc(C(N)=O)c(F)c4)n4ncnc(N)c34)C2)s1 (single isomer, unassigned) [Example 941] the pIC50 was 9.00. In the case of Cc1cc(O[C@@H]2C[C@H]3CC[C@@H](C2)N3C)c(C(=O)N[C@@H]2CCCN(c3cc(-c4cc(F)c(-n5cnnn5)c(F)c4)n4ncnc(N)c34)C2)s1 [Example 844, N-((R)-1-(4-amino-7-(3,5-difluoro-4-(1H-tetrazol-1-yl)phenyl)pyrrolo[2,1-f][1,2,4]triazin-5-yl)piperidin-3-yl)-5-methyl-3-(((1R,3s,5S)-8-methyl-8-azabicyclo[3.2.1]octan-3-yl)oxy)thiophene-2-carboxamide], the pIC50 was 8.52. In the case of CN1[C@@H]2CC[C@H]1C[C@H](Oc1cc(Cl)sc1C(=O)N[C@@H]1CCCN(c3c(F)c(C4=CCOC4)n4ncnc(N)c34)C1)C2 [Example 976, N—((R)-1-(4-amino-7-(2,5-dihydrofuran-3-yl)-6-fluoropyrrolo[2,1-f][1,2,4]triazin-5-yl)piperidin-3-yl)-5-chloro-3-(((1R,3s,5S)-8-methyl-8-azabicyclo[3.2.1]octan-3-yl)oxy)thiophene-2-carboxamide], the pIC50 was 9.00. In the case of Cc1nc(O[C@@H]2CCC[C@H](N(C)C)C2)c(C(=O)N[C@@H]2CCCN(c3cc(-c4ccc(C(N)=O)c(F)c4)n4ncnc(N)c34)C2)s1 (single isomer, unassigned; isomer 1) [Example 939], the pIC50 was 9.05. For N#Cc1ccc(-c2cc(N3CCC[C@@H](NC(=O)c4sc(Cl)cc4O[C@@H]4CN5CCC4CC5)C3)c3c(N)ncnn23)cn1 [Example 950, N—((R)-1-(4-Amino-7-(6-cyanopyridin-3-yl)pyrrolo[2,1-f][1,2,4]triazin-5-yl)piperidin-3-yl)-5-chloro-3-(((S)-quinuclidin-3-yl)oxy)thiophene-2-carboxamide], the pIC50 was 9.22. With Cc1nccc(-c2cc(N3CCC[C@@H](NC(=O)c4sc(C)nc4O[C@H]4CC[C@@H](NC(C)C)CC4)C3)c3c(N)ncnn23)n1 [Example 1036, N—((R)-1-(4-amino-7-(2-methylpyrimidin-4-yl)pyrrolo[2,1-f][1,2,4]triazin-5-yl)piperidin-3-yl)-4-(((1S,4S)-4 (isopropylamino)cyclohexyl)oxy)-2-methylthiazole-5-carboxamide] the pIC50 was 10.00. CN1CCN(c2cccc(C(=O)N[C@@H]3CCCN(c4cc(-c5ccc(-n6cccn6)cc5)n5ncnc(N)c45)C3)n2)CC1 [Example 808, (R)-N-(1-(7-(4-(1H-pyrazol-1-yl)phenyl)-4-aminopyrrolo[2,1-f][1,2,4]triazin-5-yl)piperidin-3-yl)-6-(4-methylpiperazin-1-yl)picolinamide] was tested, and the pIC50 was 7.47. Work on Cc1nc(OC2CCC(N3CCC3)CC2)c(C(=O)N[C@@H]2CCCN(c3cc(C4=CC(=O)OC4)n4ncnc(N)c34)C2)s1 (stereo partly drawn) [Example 998, (R)-N-(1-(4-amino-7-(5-oxo-2,5-dihydrofuran-3-y1)pyrrolo[2,1-f] [1,2,4]triazin-5-yl)piperidin-3-y1)-4-((4-(azetidin-1-yl)cyclohexyl)oxy)-2-methylthiazole-5-carboxamide] yielded a pIC50 of 8.96. In the case of COc1nc(-c2cc(N3CCC[C@@H](NC(=O)c4sc(C)nc4OC4CCC(N5CCC[C@@H]5C)CC4)C3)c3c(N)ncnn23)ccc1C(N)=O (stereo partly drawn) [Example 1043, N—((R)-1-(4-amino-7-(5-carbamoyl-6-methoxypyridin-2-yl)pyrrolo[2,1-f] [1,2,4]triazin-5-yl)piperidin-3-yl)-2-methyl-4-((4-((S)-2-methylpyrrolidin-1-yl)cyclohexyl)oxy) thiazole-5-carboxamide], the pIC50 was 8.68. CCC1=C(c2cc(N3CCC[C@@H](NC(=O)c4sc(C)nc4OC4CCC(N[C@@H](C)COC)CC4)C3)c3c(N)ncnn23)COC1=O (single isomer, unassigned) [Example 1023] gave a pIC50 of 9.10. In the case of COc1nccc(-c2cc(N3CCC[C@@H](NC(=O)c4sc(C)nc4O[C@H]4CC[C@@H](N5CCCC5)CC4)C3)c3c(N)ncnn23)n1 [Example 1029, N—((R)-1-(4-amino-7-(2-methoxypyrimidin-4-yl)pyrrolo[2,1-f][1,2,4]triazin-5-yl)piperidin-3-yl)-2-methyl-4-(((1s,4S)-4-(pyrrolidin-1-yl)cyclohexyl)oxy)thiazole-S-carboxamidemorpholinothiophene-2-carboxamide], the pIC50 was 10.00.
